In publication PMC12543283, “TastepepAI: An artificial intelligence platform for taste peptide de novo design” (PLOS Computational Biology, 2025):
Ends that are not written are not given here.

Experiments:
[1] = system: human embryonic kidney cells (HEK293T)
[2] = system: human umbilical vein endothelial cells (HUVEC)
Procedure: The cytotoxicity of 73 synthetic peptides was evaluated using four human cell lines: human pancreatic ductal epithelial cells (HPNE), human embryonic kidney cells (HEK293T), human umbilical vein endothelial cells (HUVEC), and human bronchial epithelial cells (BEAS-2B). When cell density reached 70% confluence, the complete culture medium was replaced with serum-free maintenance medium, and peptides were added at a final concentration of 100 μM for 36 h. Control groups received only serum-free maintenance medium without peptides. Cell proliferation was assessed using the CCK-8 assay kit (Solarbio, CA1210) according to the manufacturer’s instructions.

[3] = system: human bronchial epithelial cells (BEAS-2B)
[4] = system: human pancreatic ductal epithelial cells (HPNE)
[5] = Electronic tongue analysis (Taste-Sensing System SA 402B); set-up: unit not given here; conditions: reference solution 30 mM KCl + 0.3 mM tartaric acid as baseline, first measurement excluded; for Umami: sensor AAE; for Umami / Bitter / Sweet: detection threshold 0, room temperature; for Umami / Bitter / Sour / Salty: four replicates; for Sour: detection threshold -13, room temperature; for Salty: detection threshold -6, room temperature; for Sweet: measured five times
In short: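 Samples were tested at 0.1 and 1.0 mg/mL on an SA 402B e-tongue fitted with sourness, saltiness, bitterness, sweetness and umami sensors, with 30 mM KCl/0.3 mM tartaric acid as reference and baseline. Thresholds were −13 for sour, −6 for salty and 0 for the rest. Runs at room temperature: four replicates, five for sweetness, first reading discarded.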

Substance	Average cell viability, HEK293T [1]	Cell viability, HEK293T, Data1 [1]	Cell viability, HEK293T, Data2 [1]	Cell viability, HEK293T, Data3 [1]	Average cell viability, HUVEC [2]	Cell viability, HUVEC, Data1 [2]	Cell viability, HUVEC, Data2 [2]	Cell viability, HUVEC, Data3 [2]	Average cell viability, BEAS-2B [3]	Cell viability, BEAS-2B, Data1 [3]	Cell viability, BEAS-2B, Data2 [3]	Cell viability, BEAS-2B, Data3 [3]	Average cell viability, HPNE [4]	Cell viability, HPNE, Data1 [4]	Cell viability, HPNE, Data2 [4]	Cell viability, HPNE, Data3 [4]	Umami ([5]; peptide 0.1 mg/mL)	Umami ([5]; peptide 1 mg/mL)	Bitter ([5]; sensor C00, peptide 0.1 mg/mL)	Bitter ([5]; sensor C00, peptide 1 mg/mL)	other results
EVGMQE [TaPep56]	101.26	104.86	101.55	97.38	106.36	96.04	108.89	114.16	108.94	97.91	109.67	119.24	104.53	109.42	91.95	112.21	2.28	-4.04	7.18	3.33	Sour ([5]; sensor CA0, peptide 0.1 mg/mL): -4.96; Sour ([5]; sensor CA0, peptide 1 mg/mL): 9.59; Salty ([5]; sensor CT0, peptide 0.1 mg/mL): -21.19; Salty ([5]; sensor CT0, peptide 1 mg/mL): 6.57; Sweet ([5]; sensor GL1, peptide 0.1 mg/mL): 7.84; Sweet ([5]; sensor GL1, peptide 1 mg/mL): -7.49
FEGDQDA [TaPep18]	103.66	104.57	105.99	100.41	104.36	97.71	114.64	100.75	104.49	109.67	103.49	100.30	102.53	116.21	89.05	102.33	1.84	-5.33	6.92	3.77	Sour ([5]; sensor CA0, peptide 0.1 mg/mL): -3.88; Sour ([5]; sensor CA0, peptide 1 mg/mL): 13.35; Salty ([5]; sensor CT0, peptide 0.1 mg/mL): -22.88; Salty ([5]; sensor CT0, peptide 1 mg/mL): 7.99; Sweet ([5]; sensor GL1, peptide 0.1 mg/mL): 5.97; Sweet ([5]; sensor GL1, peptide 1 mg/mL): -5.91
FEGPE [TaPep62]	100.16	97.95	102.21	100.32	108.97	109.69	105.38	111.84	106.55	112.26	103.59	103.79	104.06	108.32	92.35	111.51	1.43	-4.77	7.43	3.70	Sour ([5]; sensor CA0, peptide 0.1 mg/mL): -2.87; Sour ([5]; sensor CA0, peptide 1 mg/mL): 11.86; Salty ([5]; sensor CT0, peptide 0.1 mg/mL): -20.91; Salty ([5]; sensor CT0, peptide 1 mg/mL): 8.50; Sweet ([5]; sensor GL1, peptide 0.1 mg/mL): 6.38; Sweet ([5]; sensor GL1, peptide 1 mg/mL): -4.13
FNGVE [TaPep61]	98.80	99.65	96.91	99.84	99.47	89.49	104.82	104.10	99.57	95.41	109.57	93.72	94.34	84.66	82.36	116.01	3.14	-2.71	6.59	3.33	Sour ([5]; sensor CA0, peptide 0.1 mg/mL): -7.21; Sour ([5]; sensor CA0, peptide 1 mg/mL): 6.60; Salty ([5]; sensor CT0, peptide 0.1 mg/mL): -23.88; Salty ([5]; sensor CT0, peptide 1 mg/mL): 3.55; Sweet ([5]; sensor GL1, peptide 0.1 mg/mL): 8.89; Sweet ([5]; sensor GL1, peptide 1 mg/mL): -2.71
FPEQQD [TaPep16]	100.13	105.99	97.00	97.38	101.44	102.74	107.69	93.88	95.65	98.50	96.11	92.32	104.83	100.13	113.61	100.73	1.15	-5.22	7.29	3.65	Sour ([5]; sensor CA0, peptide 0.1 mg/mL): -2.22; Sour ([5]; sensor CA0, peptide 1 mg/mL): 12.97; Salty ([5]; sensor CT0, peptide 0.1 mg/mL): -21.97; Salty ([5]; sensor CT0, peptide 1 mg/mL): 7.92; Sweet ([5]; sensor GL1, peptide 0.1 mg/mL): 4.77; Sweet ([5]; sensor GL1, peptide 1 mg/mL): -5.75
FTEELE [TaPep32]	100.73	105.14	99.56	97.48	98.11	111.20	89.81	93.32	106.88	104.99	104.59	111.07	103.23	117.80	110.72	81.16	1.89	-4.56	7.51	2.80	Sour ([5]; sensor CA0, peptide 0.1 mg/mL): -3.82; Sour ([5]; sensor CA0, peptide 1 mg/mL): 11.60; Salty ([5]; sensor CT0, peptide 0.1 mg/mL): -20.95; Salty ([5]; sensor CT0, peptide 1 mg/mL): 9.59; Sweet ([5]; sensor GL1, peptide 0.1 mg/mL): 8.60; Sweet ([5]; sensor GL1, peptide 1 mg/mL): -6.23
